Test results: US20110045101A1, “FUNGICIDAL SUBSTITUTED AZOLES” (E.I. Du Pont De Nemours and Company, priority 2009, published 2011)
Marks after values point to notes of the source that are not given here.

What was measured:
Assay type in all cases: in vivo
Settings in all cases: 100 = 100% disease control
[1] = test system: Puccinia recondita f. sp. tritici; assay: Test I: wheat leaf rust on wheat seedlings, sprayed the day before inoculation, visual disease rating
Outline: (§1)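 Compounds were dissolved in acetone (3% of final volume), then suspended in 50/50 acetone/water with 250 ppm Trem 014 surfactant and sprayed to run-off on test plants. A 200 ppm suspension equals 500 g/ha. Ratings are at 200 ppm unless flagged as 40 ppm.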

[2] = test system: Puccinia recondita f. sp. tritici; assay: Test H: wheat leaf rust, test suspension sprayed after inoculation of wheat seedlings, visual disease rating
Outline: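 Wheat seedlings inoculated with P. recondita spores, held 24 h saturated at 20 °C, then 2 days in growth chamber at 20 °C; compound suspension (acetone/water with Trem 014) sprayed to run-off afterwards. Rated visually; 200 ppm (≈500 g/ha) unless marked *, which denotes 40 ppm.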

[3] = test system: Erysiphe graminis f. sp. tritici; assay: Test J: wheat powdery mildew on wheat seedlings, sprayed the day before inoculation, visual disease rating
Outline: as §1

Septoria nodorum = assay: Test F: wheat glume blotch on wheat seedlings, sprayed the day before inoculation, visual disease rating
Outline: as §1

Botrytis cinerea = assay: Test C: tomato Botrytis on tomato seedlings, sprayed the day before inoculation, visual disease rating
Outline: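 Tomato seedlings sprayed to run-off with compound suspended in acetone/water with 250 ppm Trem 014 surfactant, at 200 ppm (≈500 g/ha) or 40 ppm where marked, one day before Botrytis cinerea inoculation. Disease rated visually.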

Alternaria solani = assay: Test D: tomato early blight, sprayed the day before inoculation, visual disease rating
Outline: as §1

Septoria tritici = assay: Test G: wheat leaf blotch on wheat seedlings, sprayed the day before inoculation, visual disease rating
Outline: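 Spray to run-off, 200 ppm (≈500 g/ha; starred = 40 ppm), acetone/water 50/50 + 250 ppm Trem® 014. Spore inoculation +1 d. 24° C saturated 48 h → 20° C 19 d. Visual rating.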

[4] = 200 ppm, 0 = no control relative to controls
[5] = 40 ppm (marked *), 0 = no control

Row | SMILES | Test I disease control rating [1, 4] [%] | Test H disease control rating [2, 4] [%] | Test J disease control rating [3, 4] [%] | Test F disease control rating (Septoria nodorum; [4]) [%] | Test C disease control rating (Botrytis cinerea; [4]) [%] | Test D disease control rating (Alternaria solani; [4]) [%] | Test G disease control rating (Septoria tritici; [4]) [%] | Test I disease control rating [1, 5] | Test H disease control rating [2, 5] | Test J disease control rating [3, 5] | Test F disease control rating (Septoria nodorum; [5]) | Test C disease control rating (Botrytis cinerea; [5]) | Test D disease control rating (Alternaria solani; [5]) | Test G disease control rating (Septoria tritici; [5])
1 | Fc1ccc(-n2c(Br)nc(Cl)c2-c2ccc(Cl)c(F)c2)c(Cl)c1 [compound 328] | 94 | 9 | 98 | 0 | 100 | 98 | 95 |  |  |  |  |  |  | 
2 | Fc1ccc(-n2c(Br)nc(Cl)c2-c2ccc(Cl)cc2)c(Cl)c1 [compound 329] | 90 | 0 | 99 | 0 | 99 | 99 | 94 |  |  |  |  |  |  | 
3 | Fc1ccc(F)c(-c2c(Br)ncn2-c2ccc(Cl)cc2)c1F [compound 330] | 98 | 9 | 99 | 0 | 100 | 100 | 96 |  |  |  |  |  |  | 
4 | Fc1ccc(-n2cnc(Br)c2-c2c(F)ccc(F)c2F)cc1 [compound 332] | 96 | 9 | 99 | 60 | 100 | 99 | 95 |  |  |  |  |  |  | 
5 | COc1ccc(F)c(-c2c(Cl)nc(C)n2-c2ccc(C)cc2)c1F [compound 333] |  |  |  |  |  |  |  | 100* % | 0* % | 100* % | 99* % | 100* % | 100* % | 91* %
6 | COc1ccc(F)c(-c2c(Cl)nc(C)n2-c2ccc(F)cc2)c1F [compound 334] |  |  |  |  |  |  |  | 100* % | 0* % | 100* % | 90* % | 100* % | 100* % | 93* %
7 | COc1ccc(F)c(-c2c(Cl)nc(C)n2-c2cccc(C)c2)c1F [compound 335] |  |  |  |  |  |  |  | 99* % | 0* % | 99* % | 82* % | 100* % | 100* % | 91* %
8 | Cc1nc(Br)c(-c2c(F)cccc2F)n1-c1ccc2ccccc2c1 [compound 336] |  |  |  |  |  |  |  | 74* % | 0* % | 87* % | 99* % | 99* % | 88* % | 96* %
9 | Cc1nc(Br)c(-c2c(F)cccc2F)n1-c1ccc(Cl)c2ccccc12 [compound 337] |  |  |  |  |  |  |  | 0* % | 0* % | 0* % | 0* % | 19* % | 0* % | 23* %
10 | Cc1nc(Br)c(-c2ccc(Cl)cc2)n1-c1ccc(F)cc1Cl [compound 338] | 99 | 0 | 99 | 80 | 100 | 100 | 93 |  |  |  |  |  |  | 
11 | Cc1nc(Br)n(-c2ccc(F)cc2Cl)c1-c1ccc(Cl)cc1 [compound 339] | 96 | 0 | 96 | 78 | 100 | 99 | 95 |  |  |  |  |  |  | 
12 | Cc1nc(Br)c(-c2ccc(Cl)c(F)c2)n1-c1ccc(F)cc1Cl [compound 340] | 94 | 0 | 95 | 0 | 99 | 98 | 92 |  |  |  |  |  |  | 
13 | Fc1cccc(F)c1-n1c(-c2ccc(Cl)cc2)cnc1Cl [compound 341] |  |  |  |  |  |  |  | 0* % | 9* % | 0* % | 0* % | 91* % | 24* % | 0* %
14 | Fc1cc(-n2cnc(Br)c2-c2c(F)ccc(F)c2F)ccc1Cl [compound 342] | 98 | 0 | 99 | 0 | 100 | 99 | 95 |  |  |  |  |  |  | 
15 | Fc1ccc(F)c(-c2c(Br)ncn2-c2ccc(Cl)cc2)c1Cl [compound 343] | 93 | 0 | 98 | 64 | 100 | 97 | 94 |  |  |  |  |  |  | 
16 | Cc1nn(C)c(Cc2ccc(Cl)cc2)c1-c1ccc(F)cc1Cl [compound 344] | 89 | 17 | 99 | 0 | 100 | 0 | 95 |  |  |  |  |  |  | 
